Literature values in patent publication US10711043B2, “Compositions and vaccines comprising vesicles and methods of using the same” (priority 2013, dated 2020).

COc1cc2cc(c1Cl)N(C)C(=O)C[C@H](OC(=O)[C@H](C)N(C)C(C)=O)[C@]1(C)O[C@H]1[C@H](C)[C@@H]1C[C@@](O)(NC(=O)O1)[C@H](OC)/C=C/C=C(\C)C2 [Maytansine, maytansine]
solubility: insoluble in water and most solvents
